From patent US6355238B1, “Specific immune system modulation” (Yale University, priority 1992, dated 2002)

Legend:
[1] = compared with 8-MOP; Calzavara-Pinton et al. 1992; cited from earlier work
Lysozyme = Lysozyme (Gallus gallus, UniProt P00698); test: Covalent photobinding of 8-MOP to lysozyme (liquid scintillation, [3H]8-MOP); type: binding; conditions: lysozyme 0.4 mg/ml, 8-MOP 0.04 mg/ml
Experimental: Lysozyme (0.4 mg/ml) and 8-MOP (0.04 mg/ml) including trace amounts of [3H]8-MOP) were exposed to UVA (3.6 mW/cm^2; filtered with window glass to remove UVB). Aliquots were taken after 15, 30, 60 and 120 min. UVA exposure and were dialyzed exhaustively using distilled water in a microdialyzer (BRL, Bethesda, Md.). An aliquot of each sample was analyzed by liquid scintillation analysis to determine the extent of covalent photobinding of 8-MOP.

Chick ovalbumin = target: T1, Chick ovalbumin (Gallus gallus, UniProt P01012); test: Covalent photobinding of 8-MOP to ovalbumin with visible light; type: binding
T1 sequence (P01012 1-386): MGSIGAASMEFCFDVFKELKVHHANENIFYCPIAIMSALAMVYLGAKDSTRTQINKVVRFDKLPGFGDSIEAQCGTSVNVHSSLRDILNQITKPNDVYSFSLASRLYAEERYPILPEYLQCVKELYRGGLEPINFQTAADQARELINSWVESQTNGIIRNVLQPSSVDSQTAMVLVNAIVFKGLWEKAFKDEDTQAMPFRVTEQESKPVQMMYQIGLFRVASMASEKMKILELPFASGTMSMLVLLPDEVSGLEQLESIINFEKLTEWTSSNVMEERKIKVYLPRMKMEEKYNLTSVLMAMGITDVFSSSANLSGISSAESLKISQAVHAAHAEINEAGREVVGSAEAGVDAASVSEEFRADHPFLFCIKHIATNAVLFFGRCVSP
Experimental: Approximately 0.1% photoadducts were observed per amino acid.
Ovalbumin (0.4 mg/ml) and 8-MOP (0.04 mg/ml) containing trace amounts of [^3H]8-MOP) were exposed to visible radiation (419 nm) for 60 min. and thereafter, dialyzed exhaustively using distilled water in a microdialyzer (BRL, Bethesda, Md.). An aliquot of the sample was analyzed by liquid scintillation analysis.

Sequence of Lysozyme (P00698 19-147): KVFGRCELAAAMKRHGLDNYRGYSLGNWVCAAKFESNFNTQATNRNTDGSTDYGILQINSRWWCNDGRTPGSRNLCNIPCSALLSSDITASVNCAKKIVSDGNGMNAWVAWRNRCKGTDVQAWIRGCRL

| moles 8-MOP/moles Lysozyme (Lysozyme; 0 min UVA exposure) | moles 8-MOP/moles Lysozyme (Lysozyme; 30 min UVA exposure (3.6 mW/cm^2)) | moles 8-MOP/moles Lysozyme (Lysozyme; 60 min UVA exposure (3.6 mW/cm^2)) | moles 8-MOP/moles Lysozyme (Lysozyme; 120 min UVA exposure (3.6 mW/cm^2)) | photoadducts per amino acid (Chick ovalbumin; visible light (419 nm)) | SMILES | efficacy in the treatment of psoriasis [1] | extent of covalent photobinding of 8-MOP to ovalbumin (Chick ovalbumin; visible radiation (419 nm) 60 min, ovalbumin 0.4 mg/ml, 8-MOP 0.04 mg/ml) |
| --- | --- | --- | --- | --- | --- | --- | --- |
|  |  |  |  |  | COc1c2ccoc2cc2oc(=O)ccc12 [5-MOP, 5-methoxypsoralen] | not as efficacious as 8-MOP |  |
| 0 moles 8-MOP/moles Lysozyme | 0.90 moles 8-MOP/moles Lysozyme | 2.04 moles 8-MOP/moles Lysozyme | 1.86 moles 8-MOP/moles Lysozyme | Approximately 0.1% | COc1c2occc2cc2ccc(=O)oc12 [8-MOP, 8-methoxypsoralen] |  | approximately 0.039 8-MOP molecules/ovalbumin molecule |
